We go through six compounds from PMC7238120, “Strong and Selective Inhibitory Effects of the Biflavonoid Selamariscina A against CYP2C8 and CYP2C9 Enzyme Activities in Human Liver Microsomes” (Pharmaceutics, 2020).

The data set has as its target T1, CYP2B6 (Homo sapiens, UniProt P20813).
T1 construct: incubation mixtures containing pooled human liver microsomes (HLMs, XTreme 200, XenoTech); tissue XenoTech XTreme 200; host or cells: pooled human liver microsomes
T1 sequence (P20813 1-491): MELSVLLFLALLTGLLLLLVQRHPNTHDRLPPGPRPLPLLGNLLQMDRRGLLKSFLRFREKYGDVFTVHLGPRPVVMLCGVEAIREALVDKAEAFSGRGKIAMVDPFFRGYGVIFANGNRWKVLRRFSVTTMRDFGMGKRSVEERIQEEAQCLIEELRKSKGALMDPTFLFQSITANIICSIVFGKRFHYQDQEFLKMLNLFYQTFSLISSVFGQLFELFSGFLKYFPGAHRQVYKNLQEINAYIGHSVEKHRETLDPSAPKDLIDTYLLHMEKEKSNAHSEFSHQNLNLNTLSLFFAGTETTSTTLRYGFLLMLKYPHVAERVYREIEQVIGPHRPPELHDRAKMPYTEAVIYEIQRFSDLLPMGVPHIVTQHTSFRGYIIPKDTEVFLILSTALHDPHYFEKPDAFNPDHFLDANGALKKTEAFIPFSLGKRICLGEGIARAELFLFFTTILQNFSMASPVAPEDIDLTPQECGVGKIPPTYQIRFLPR
The data set can be described thus: Inhibition of CYP2B6-catalyzed bupropion hydroxylation in pooled human liver microsomes. In kind it is in vitro ADME. The protocol: The inhibitory potential of the five biflavonoids on the metabolism of nine P450 probe substrates was evaluated using previously developed methods with minor modifications. Biflavonoids were dissolved in methanol. The final concentration of methanol in the incubation mixture was 1.0% (v/v). We used these P450 probe substrates: phenacetin for CYP1A2, coumarin for CYP2A6, bupropion for CYP2B6, amodiaquine for CYP2C8, diclofenac for CYP2C9, omeprazole for CYP2C19, dextromethorphan for CYP2D6, chlorzoxazone for CYP2E1 and midazolam for CYP3A (Table 1). […] The reaction was stopped by adding 50 μL of ice-cold acetonitrile containing 7 nM trimipramine (internal standard, IS). After centrifugation at 18,000 g (5 min, 4 °C), aliquots of supernatants were analyzed by LC-MS/MS (Shimadzu LCMS 8060 system, Shimadzu, Kyoto, Japan). All microsomal incubations were conducted in triplicate. We used HLMs to determine the mechanisms and constants (Ki values) for […] A inhibition of CYP1A2, CYP2B6, CYP2C8, CYP2C9 and CYP3A. […] The substrates were used at concentrations approximately near to their respective Km values. […] The other conditions were the same as in the cytochrome P450 inhibition study. […] Phenomenex, Torrance, CA, USA) and analyzed using a Shimadzu LCMS 8060 triple-quadrupole mass spectrometer coupled with a Nexera X2 ultra high-performance liquid chromatography system (Shimadzu, Kyoto, Japan) equipped with an electrospray ionization interface. The mobile phase consisted of 0.1% formic acid in water (A) and 0.1% formic acid in acetonitrile (B). […] The flow rate was 0.2 mL/min. Electrospray ionization was performed in positive-ion mode at 4000 V or in negative-ion mode at -3500 V. […] Quantitation was conducted in selected reaction monitoring (SRM) modes with the precursor-to-product ion transition for each metabolite (Table 1 and Table 2). We analyzed the data with Shimadzu LabSolution LC-MS software. The IC50 values were calculated by WinNonlin software (Pharsight, Mountain View, CA, USA). The type of inhibition and the apparent kinetic parameters for inhibitory activity (Ki) were determined by following several criteria: visual inspection of Dixon plots, Lineweaver-Burk double reciprocal plots, and secondary plots of Lineweaver-Burk plots versus biflavonoid concentrations, the size of the sum of squares of the residuals, Akaike Information Criteria values, the S.E. and 95% confidence interval of the parameter estimates from the nonlinear regression analysis using the WinNonlin software. The models tested included competitive, competitive partial, noncompetitive, noncompetitive partial, uncompetitive, uncompetitive partial, and mixed-type inhibition.
(In general: Liver microsomes are a subcellular fraction often used to study metabolism.)

[1] abbreviates: substrate bupropion 50 µM, pooled HLMs, read-out: IC50, P450 2B6.

Read-outs that look alike come from different tables or passages of the source. A value given as a limit tells only on which side of the number the result lay.

The term IC50 denotes the midpoint of a concentration-inhibition curve. A word on the inhibition: it is the relative decrease from the control value, in per cent. Low readings indicate a weak effect, high ones a strong effect. What is called Ki is a measure of affinity in units of concentration, obtained from inhibition or displacement.

For the compound `O=c1cc(-c2ccc(O)c(-c3c(O)cc(O)c4c(=O)cc(-c5ccc(O)cc5)oc34)c2)oc2cc(O)cc(O)c12` [amentoflavone], half-maximal inhibition (IC50) required 7.1 µM.
Regarding `O=c1cc(-c2ccc(O)cc2)oc2c(-c3c(O)cc(O)c4c(=O)cc(-c5ccc(O)cc5)oc34)c(O)cc(O)c12` [cupressuflavone], the IC50 under setting [1] came out at 6.7 µM.
`CC(C)(O)c1ccccc1CC[C@@H](SCC1(CC(=O)O)CC1)c1cccc(/C=C/c2ccc3ccc(Cl)cc3n2)c1` [montelukast, reference compound] came in with an inhibition at 10 min, 5 µM (human, pooled human liver microsomes, probe bupropion, inhibitor 5 μM, pooled HLMs) of 20.4%. Under setting [1], the IC50 was above 50 µM.
Turning to `O=c1cc(-c2ccc(O)c(-c3c(O)cc4oc(-c5ccc(O)cc5)cc(=O)c4c3O)c2)oc2cc(O)cc(O)c12` [robustaflavone], the IC50 under setting [1] was found to be 5.7 µM.
Turning to `O=C1CC(c2cc(-c3c(O)ccc4c(=O)cc(-c5ccc(O)cc5)oc34)c(O)cc2O)Oc2cc(O)cc(O)c21` (stereo not drawn) [selamariscina A], where the note is “HLMs”, the “Mode of Inhibition, CYP2B6 bupropion” value is recorded as “Noncompetitive”. The affinity (HLMs, average ± standard error, triplicate) corresponds to a Ki of 7.9 ± 1.1 µM. For the same compound, the IC50 under setting [1] worked out at 5.3 µM.
On to `O=c1cc(-c2ccc(O)c(-c3c(-c4ccc(O)cc4)oc4cc(O)cc(O)c4c3=O)c2)oc2cc(O)cc(O)c12` [taiwaniaflavone], for which the IC50 under setting [1] was 6.4 µM.
